Data: patent US20250367209A1 (SOUTHERN RESEARCH INSTITUTE, priority 2022, published 2025)
Entries after “also recorded” stand apart in the source; their conditions may differ.

Tests used:
[1] = target: 97 kinases; test: Eurofins DiscoverX ScanEDGE kinase panel; type: biochemical; details: compound no. 69 at 3 μM; saracatinib stock 30 μM = 1000× testing concentration; activity = <35% of control
Source text: 69 and compound no. […] Since Fyn was not included in that panel, a custom panel was completed for Fyn kinase activity.

[2] = target: FynSH3 (Homo sapiens (Human), UniProt P06241); test: Isothermal titration calorimetry, FynSH3; type: binding
Source text: Human Fyn-SH3 domain with GST-tag at the N-terminus and a Strep-tag II ([…]) at the C-terminus (GST-Fyn-SH3-Strep) was cloned into pPR-IBA1 vector (IBA Lifesciences) (Cochran, et al. (2014) J. Biomol. Screen. 19, 1338-1349). Codon-optimized human 4R2N Tau for E. coli expression with a Strep-tag II at the C-terminus (His-Tau-Strep) was cloned into pET-28a(+) vector (Novagen). The constructs were transformed into E. coli BL-21(DE3) competent cells (Novagen). For GST-Fyn-SH3-Strep purification, a single colony was inoculated in Luria-Bertani (LB) broth at 37° C. overnight. 10 mL cell culture was added into 500 mL LB medium and cultured at 37° C. 0.5 mM Isopropyl β-D-1-thiogalactopyranoside (IPTG) was added into the culture when OD600 reached 0.7. Cells were further cultured at 25° C. for 4 hours and harvested. Cell pellet was resuspended in lysis buffer (20 mM Tris pH 7.9, 300 mM NaCl, 1 mM TCEP) with 1 tablet of EDTA-free protease inhibitors (ThermoFisher) and 1 mg/ml lysozyme. Cells were disrupted by sonication and debris was removed by centrifugation at 9500 rpm for 1 hour. […]
Purified full-length Tau and FynSH3 were dialyzed into 20 mM Tris and 150 mM NaCl, pH 8.0 with Slide-A-Lyzer G2 Dialysis Cassettes with 10K MWCO (ThermoFisher #87729). […] Protein concentrations were measured on a Nanodrop2000 (ThermoFisher) based on absorbance at 280 nm. […]

[3] = target: Tau-PxxP5/6 (Homo sapiens (Human), UniProt P10636); test: Isothermal titration calorimetry, Tau-PxxP5/6 peptide; type: binding
Experimental: ITC experiments were performed on an Auto-iTC200 system (Malvern Instruments, Westborough, MA). ITC sample cell contained ˜120 μM full-length Tau, FynSH3, or Tau-PxxP5/6 (titrand), and the syringe contained 1 mM compound no. 69 (titrant). Each titration experiment consisted of 16 injections of […] of titrant into titrand at 25° C. Background mixing heat was determined from injections of titrant into the same buffer without titrand. Data analysis was performed using the built-in analysis module in Origin 7 provided by the ITC manufacturer. The normalized titration heat was fitted to a “one set of sites” model to determine the best-fit binding parameters.

[4] = target: Tau-LckSH3 interaction (Homo sapiens (Human), UniProt P10636); test: Tau-Flag PLA, Tau-LckSH3; type: cell-based; details: 15 μM, HEK-293 cells
Experimental: Tau-Flag PLA for Tau-SH3 interactions: To clone the SH3 constructs, a C-terminal Flag tag was added to the Tau construct using PCR, then the Tau sequence was replaced with the desired SH3 domain using In-Fusion HD cloning kit (Takara Bio). Next, an N-terminal GST tag was added to help expression using In-Fusion, resulting in GST-SH3-Flag plasmids. As a negative control, restriction enzymes were used to remove the FynSH3 from the FynSH3 construct, resulting in GST-Flag. All sequences were confirmed with Sanger sequencing, and expression in HEK-293 cells was verified by western blot and immunocytochemistry. Plating and experimental timeline was the same as above. Cells were transfected with 125 ng of Tau-mKate2 and 500 ng SH3 plasmid with 1.5 μL Fugene. compound no. 69 was applied to final concentration 15 μM. For Tau-SH3 PLA, we used Dako Tau (1:1000) and Flag (1:1000) primary antibodies.

Tau-LckSH3 interaction, sequence (P10636 other isoform, or with tags, fused parts or gaps): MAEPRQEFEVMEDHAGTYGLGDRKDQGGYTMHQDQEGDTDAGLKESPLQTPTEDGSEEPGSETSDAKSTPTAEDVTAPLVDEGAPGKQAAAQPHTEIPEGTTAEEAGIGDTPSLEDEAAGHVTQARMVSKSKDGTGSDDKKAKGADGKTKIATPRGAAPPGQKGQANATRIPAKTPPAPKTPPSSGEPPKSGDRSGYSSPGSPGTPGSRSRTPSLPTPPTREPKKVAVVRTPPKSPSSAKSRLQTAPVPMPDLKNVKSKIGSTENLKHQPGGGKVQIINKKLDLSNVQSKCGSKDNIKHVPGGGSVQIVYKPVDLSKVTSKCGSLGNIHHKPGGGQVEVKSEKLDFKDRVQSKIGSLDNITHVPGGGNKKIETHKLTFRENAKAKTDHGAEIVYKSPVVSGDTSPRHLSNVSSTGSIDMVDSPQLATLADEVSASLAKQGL
FynSH3, sequence (P06241 82-143): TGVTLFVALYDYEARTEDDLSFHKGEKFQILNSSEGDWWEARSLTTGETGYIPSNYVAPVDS

Structure (SMILES): O=C(CN1CCOc2ccccc21)Nc1nnc(-c2ccccn2)[nH]1 [compound no. 69]
- kinase inhibition, panel of 97 kinases [1]: did not inhibit Fyn or any of the 97 kinases; also recorded: is not a kinase inhibitor
- binding to FynSH3, ITC [2]: did not bind FynSH3
- interaction with Tau-PxxP5/6 peptide, ITC [3]: No interaction was observed
- Tau-LckSH3 interaction, Tau-Flag PLA [4]: strongly inhibited; also recorded: inhibits Tau-LckSH3 interaction
